Experimental data from article PMC4641580 (ACS Medicinal Chemistry Letters, 2015).

Assays:
[1] = target: T1, human PTP-PEST (Homo sapiens, UniProt Q05209); type: biochemical
T1 sequence (Q05209 1-780): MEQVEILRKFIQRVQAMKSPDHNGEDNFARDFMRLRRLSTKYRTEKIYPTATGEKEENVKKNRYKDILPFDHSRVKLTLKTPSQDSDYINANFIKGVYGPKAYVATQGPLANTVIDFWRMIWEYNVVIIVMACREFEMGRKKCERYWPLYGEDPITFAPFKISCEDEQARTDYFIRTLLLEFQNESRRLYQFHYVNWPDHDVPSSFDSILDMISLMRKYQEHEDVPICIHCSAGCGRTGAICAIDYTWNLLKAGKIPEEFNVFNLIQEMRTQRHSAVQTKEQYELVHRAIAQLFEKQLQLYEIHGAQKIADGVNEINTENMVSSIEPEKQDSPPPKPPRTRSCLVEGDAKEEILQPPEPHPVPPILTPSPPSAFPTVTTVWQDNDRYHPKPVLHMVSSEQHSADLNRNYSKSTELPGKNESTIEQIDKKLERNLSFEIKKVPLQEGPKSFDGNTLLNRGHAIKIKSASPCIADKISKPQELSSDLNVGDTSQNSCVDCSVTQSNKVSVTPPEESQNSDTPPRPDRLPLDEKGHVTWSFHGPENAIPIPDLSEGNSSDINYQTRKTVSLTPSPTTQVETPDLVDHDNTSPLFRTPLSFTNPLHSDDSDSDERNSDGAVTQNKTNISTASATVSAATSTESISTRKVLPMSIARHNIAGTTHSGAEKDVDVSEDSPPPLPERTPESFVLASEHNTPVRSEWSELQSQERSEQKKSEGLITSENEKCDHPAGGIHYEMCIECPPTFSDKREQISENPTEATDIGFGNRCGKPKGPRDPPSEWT

[2] = target: T2, human PTP1B (Homo sapiens, UniProt P18031); type: biochemical
T2 sequence (P18031 1-435): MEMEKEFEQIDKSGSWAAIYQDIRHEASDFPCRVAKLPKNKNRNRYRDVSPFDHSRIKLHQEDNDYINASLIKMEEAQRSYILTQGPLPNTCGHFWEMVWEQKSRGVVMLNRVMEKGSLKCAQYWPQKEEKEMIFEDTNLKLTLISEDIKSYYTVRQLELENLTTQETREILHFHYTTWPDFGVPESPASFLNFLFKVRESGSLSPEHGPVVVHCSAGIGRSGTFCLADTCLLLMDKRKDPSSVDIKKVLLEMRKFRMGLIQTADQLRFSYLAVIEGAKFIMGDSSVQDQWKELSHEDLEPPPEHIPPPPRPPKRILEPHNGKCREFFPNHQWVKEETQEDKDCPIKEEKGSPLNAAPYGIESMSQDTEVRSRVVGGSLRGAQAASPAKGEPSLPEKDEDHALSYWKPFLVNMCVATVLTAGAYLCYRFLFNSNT

[3] = target: YopH (Yersinia enterocolitica, UniProt P15273); type: biochemical; conditions: read-out: Ki against YopH
[4] = target: T3, human LYP (Homo sapiens, UniProt Q9Y2R2); type: biochemical
T3 sequence (Q9Y2R2 1-807): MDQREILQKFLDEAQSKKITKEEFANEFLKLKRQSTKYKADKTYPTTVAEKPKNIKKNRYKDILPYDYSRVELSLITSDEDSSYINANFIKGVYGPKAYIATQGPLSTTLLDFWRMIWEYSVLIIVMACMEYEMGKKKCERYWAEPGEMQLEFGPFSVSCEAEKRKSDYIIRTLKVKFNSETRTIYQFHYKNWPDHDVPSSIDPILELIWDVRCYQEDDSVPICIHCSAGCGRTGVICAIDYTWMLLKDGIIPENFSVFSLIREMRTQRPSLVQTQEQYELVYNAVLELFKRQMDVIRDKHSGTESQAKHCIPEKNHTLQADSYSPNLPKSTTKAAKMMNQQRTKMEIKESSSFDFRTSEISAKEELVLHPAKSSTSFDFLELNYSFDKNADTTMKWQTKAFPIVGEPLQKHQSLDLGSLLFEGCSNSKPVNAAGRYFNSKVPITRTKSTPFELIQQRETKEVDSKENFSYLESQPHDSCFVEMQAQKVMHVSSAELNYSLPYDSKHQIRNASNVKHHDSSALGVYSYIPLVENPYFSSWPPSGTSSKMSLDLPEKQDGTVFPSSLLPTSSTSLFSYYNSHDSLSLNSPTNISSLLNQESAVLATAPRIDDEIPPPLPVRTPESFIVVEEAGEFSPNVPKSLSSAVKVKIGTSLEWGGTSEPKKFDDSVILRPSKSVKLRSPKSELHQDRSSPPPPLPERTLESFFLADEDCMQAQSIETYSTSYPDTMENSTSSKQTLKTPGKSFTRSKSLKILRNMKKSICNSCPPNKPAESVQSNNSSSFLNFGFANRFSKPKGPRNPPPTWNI

[5] = test system: Mycobacterium tuberculosis PtpB; type: biochemical; conditions: read-out: IC50 PtpB
[6] = target: Mycobacterium tuberculosis PtpA (Mycobacterium tuberculosis, UniProt P9WIA1)
Sequence of Mycobacterium tuberculosis PtpA (P9WIA1 whole entry): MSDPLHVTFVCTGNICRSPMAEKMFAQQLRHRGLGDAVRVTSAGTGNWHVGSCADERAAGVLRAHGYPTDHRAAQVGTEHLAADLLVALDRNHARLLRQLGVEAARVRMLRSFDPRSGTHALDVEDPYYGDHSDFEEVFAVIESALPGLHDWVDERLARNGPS

Sequence of YopH (P15273 whole entry, looked up): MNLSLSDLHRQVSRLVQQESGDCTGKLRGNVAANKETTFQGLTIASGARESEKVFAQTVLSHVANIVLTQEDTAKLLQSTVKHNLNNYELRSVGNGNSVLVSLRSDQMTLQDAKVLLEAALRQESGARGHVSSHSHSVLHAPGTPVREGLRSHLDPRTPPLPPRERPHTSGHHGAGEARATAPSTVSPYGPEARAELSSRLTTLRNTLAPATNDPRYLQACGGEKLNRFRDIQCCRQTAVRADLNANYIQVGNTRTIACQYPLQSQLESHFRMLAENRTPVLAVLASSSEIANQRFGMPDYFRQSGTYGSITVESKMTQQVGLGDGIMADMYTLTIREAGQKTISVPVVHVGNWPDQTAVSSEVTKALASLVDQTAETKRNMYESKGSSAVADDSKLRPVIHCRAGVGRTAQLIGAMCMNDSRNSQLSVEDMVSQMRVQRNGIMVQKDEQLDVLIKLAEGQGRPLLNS

With `[O]=[V]([S]c1cccc[n+]1[O-])[S]c1cccc[n+]1[O-]` [Compound 3, Bis(pyridine-2-thiol N-oxide) oxovanadium(IV)] the “SI (IC50PTP/IC50YopH) PTP–PEST” value [1] was 142.4, the IC50 ([1]; read-out: IC50 PTP–PEST) was 41.3 ± 3.19 µM and the “SI (IC50PTP/IC50YopH) PTP1B” value [2] was 2.7. The IC50 ([2]; read-out: IC50 PTP1B) was 0.78 ± 0.02 µM, the Ki [3] was 0.19 µM and the “SI (IC50PTP/IC50YopH) LYP” value [4] was 97.6. For the same compound, the IC50 ([4]; read-out: IC50 LYP) was 28.3 ± 1.71 µM, the IC50 [5] was 52.6 ± 1.56 µM and the “SI (IC50PTP/IC50YopH) PtpA” value [6] was 31.5. The IC50 ([6]; read-out: IC50 PtpA) was 9.12 ± 0.26 µM.
